Results taken from US11696913B2, “Prolonged ectoparasite-controlling agent for animal” (MITSUI CHEMICALS AGRO, INC., priority 2017, dated 2023).
Read-outs that look alike come from different tables or passages of the source.

Experiments:
[1] = tested on: Ctenocephalides felis; assay: Systemic treatment in-vivo test with cat flea on rats; details: intraperitoneal injection, 5 mg/kg; for inhibition in vivo at 5 mg/kg: Ctenocephalides felis, ip
Method: Systemic Treatment In-Vivo Test with American Dog Tick Nymph and Cat Flea on Rats
Type of study and overall study design: The method is a randomized non-blinded efficacy study in accordance with European animal welfare requirements. Rats (Rattus norvegicus) were randomized based on pre-treatment flea counts. The efficacy of treatment was determined by comparison of the flea and tick counts of different treatment groups versus the placebo-treated control group. The experimental unit was the individual study animal. Method and route of administration: The compound was applied in a suitable solvent and carrier (more specifically, added to glycerol formal; in case of poorly soluble compounds, a solvent mixture with up to 25% by volume of N-methyl pyrrolidone may be used.) considering the individual body weight as an intraperitoneal injection.
Experimental infestation: On the day of treatment and weekly thereafter, 30 ticks (D. variabilis nymphs) were released onto the back of each rat, and 30 fleas (C. felis) were released onto the back of each rat 24 h later.
Tick and Flea counting: Rats were thoroughly examined and ticks and fleas were manually removed 48 h (±4 h) after tick infestation and 24 h after flea infestation. Live fleas and live attached engorged ticks were counted. In non-evident cases, engorgement status was evaluated by squeezing the tick on a filter paper to find traces of blood as sign for engorgement.

[2] = tested on: Ctenocephalides felis; assay: Ctenocephalides felis in-vitro feeding test with fleas (CTECFE oral); details: 48 hours, read-out: insecticidal feeding activity; for pest or weed control at 0.8 ppm: dose 0.8 ppm in citrated cattle blood; for pest or weed control at 4 ppm: dose 4 ppm in citrated cattle blood; for pest or weed control at 0.16 ppm: dose 0.16 ppm in citrated cattle blood; for pest or weed control at 0.0064 ppm: dose 0.0064 ppm in citrated cattle blood; for pest or weed control at 0.032 ppm: dose 0.032 ppm in citrated cattle blood
Procedure, shortened: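 Scored as percent fleas killed (0–100%) 48 hours after feeding began. Compound, dissolved in DMSO and diluted into citrated cattle blood, was offered via a parafilm membrane to roughly 20 adult male and female C. felis at about 37° C.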

[3] = tested on: Plutella xylostella; assay: Insecticidal testing against diamondback moth; type: in vivo; details: foliar, 144 h, concentration 100 ppm, cabbage leaf dip, third-stage larvae, after 6 days, read-out: pesticidal rate
Description: Insecticidal Testing Against Diamondback Moth (Plutella xylostella)

[4] = tested on: Ctenocephalides felis; assay: In vitro contact test with fleas; details: read-out: insecticidal activity; for pest or weed control at 0.2 µg/cm2, 0.2 µg/cm2: dose 0.2 μg/cm^2, dead or moribund fleas after 48 h; for pest or weed control at 1 µg/cm2, 1 µg/cm2: dose 1 μg/cm^2, dead or moribund fleas after 48 h; for pest or weed control at 0.04 µg/cm2, 0.04 µg/cm2: dose 0.04 μg/cm^2, dead or moribund fleas after 48 h
Procedure, shortened: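 Activity is the percentage of fleas dead or moribund at 48 h, judged by immobility or uncoordinated movement after tapping. Tubes were coated by evaporating acetone solutions (900 ppm gives 5 μg/cm^2), then held 5-10 adult fleas of both sexes at room temperature and ambient humidity.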

[5] = tested on: Spodoptera litura; assay: Insecticidal testing against common cutworm; type: in vivo; details: foliar, 144 h, concentration 100 ppm, cabbage leaf dip, second-stage larvae, after 6 days, read-out: pesticidal rate
Description: Insecticidal Testing Against Common Cutworm (Spodoptera litura)

[6] = tested on: Laodelphax striatellus; assay: Insecticidal testing against small brown planthopper; type: in vivo; details: 144 h, concentration 100 ppm, sprayed rice seedlings, after 6 days, read-out: pesticidal rate
Method: Insecticidal Testing Against Small Brown Planthopper (Laodelphax striatellus)
An additional test was carried out with 10 small brown planthoppers by preparing an acetone solution of the testing compound diluted to a predetermined concentration, spraying the solution onto rice seedlings and air drying the rice seedlings. The medicament was all used as received. The rice seedlings were placed in a constant-temperature room at 25° C., and the survival rate was investigated after 6 days. The test was carried out by means of one group of 10 pests.

[7] = tested on: Rhipicephalus (Boophilus) microplus; assay: In vitro injection test with Rhipicephalus (Boophilus) microplus (BOOPMI Inj); details: 168 h, laid fertile eggs after 7 days, read-out: acaricidal activity; for pest or weed control at 0.00016 mg: dose 0.16 μg/animal injected; for pest or weed control at 0.0008 mg: dose 0.8 μg/animal injected
Procedure, shortened: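 Five engorged adult females each get a 1 μl abdominal injection of compound dissolved and diluted in DMSO. Kept 7 days at 28° C./85% rel. hum.; percent activity rates egg laying and egg fertility (0% all fertile, 100% none laid or infertile).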

Compound | pest or weed control at 0.8 ppm [2] [%] | pest or weed control at 4 ppm [2] [%] | pest or weed control at 100 ppm [3] [%] | pest or weed control at 0.2 µg/cm2, 0.2 µg/cm2 [4] [%] | pest or weed control at 1 µg/cm2, 1 µg/cm2 [4] [%] | pest or weed control at 100 ppm [5] [%] | pest or weed control at 100 ppm [6] [%] | pest or weed control at 0.00016 mg [7] [%] | pest or weed control at 0.0008 mg [7] [%] | pest or weed control at 0.16 ppm [2] [%] | further results
Cc1cc(C2=NOC(c3cc(Cl)cc(Cl)c3)(C(F)(F)F)C2)ccc1C(=O)NCC(=O)NCC(F)(F)F (stereo not shown) [Fluralaner, fluralaner, reference compound] |  |  |  |  |  |  |  |  |  |  | Geometric mean percent reduction in live flea (Ctenocephalides felis) counts compared to untreated control rats ([1]; SD 2): 100%; Geometric mean percent reduction in live flea (Ctenocephalides felis) counts compared to untreated control rats ([1]; SD 9): 100%; Geometric mean percent reduction in live flea (Ctenocephalides felis) counts compared to untreated control rats ([1]; SD 16): 51%; Geometric mean percent reduction in live flea (Ctenocephalides felis) counts compared to untreated control rats ([1]; SD 23): 7%
CN(C(=O)c1ccc(OC(F)(F)F)cc1)c1cccc(C(=O)Nc2c(I)cc(C(F)(C(F)(F)F)C(F)(F)F)cc2C(F)(F)F)c1F [Compound 61] | 95 | 95 | ≥ 70 | 95 | 95 | ≥ 70 | ≥ 70 | 100 | 100 |  | 
COc1ccc(C(=O)N(C)c2cccc(C(=O)Nc3c(I)cc(C(F)(C(F)(F)F)C(F)(F)F)cc3C(F)(F)F)c2F)cc1OC [Compound 50] |  | 95 | ≥ 70 |  |  | ≥ 70 |  |  |  |  | 
O=C(Nc1cccc(C(=O)Nc2c(I)cc(C(F)(C(F)(F)F)C(F)(F)F)cc2C(F)(F)F)c1F)c1cnc(C(F)(F)F)nc1 [Compound 114] | 95 | 95 | ≥ 70 |  |  | ≥ 70 |  |  | 100 | 95 | 
CN(C(=O)c1ccc(C(F)(F)F)nc1C(F)(F)F)c1cccc(C(=O)Nc2c(I)cc(C(F)(C(F)(F)F)C(F)(F)F)cc2C(F)(F)F)c1F [Compound 111] | 95 | 95 | ≥ 70 | 95 | 95 | ≥ 70 |  | 100 | 100 | 95 | pest or weed control at 0.0064 ppm [2]: 95%; pest or weed control at 0.032 ppm [2]: 95%; pest or weed control at 0.04 µg/cm2, 0.04 µg/cm2 [4]: 95%
CN(C(=O)c1ccc2c(c1)OCO2)c1cccc(C(=O)Nc2c(I)cc(C(F)(C(F)(F)F)C(F)(F)F)cc2C(F)(F)F)c1F [Compound 55] |  | 95 | ≥ 70 | 95 | 95 | ≥ 70 |  |  |  |  | 
CN(C(=O)c1ccc(S(C)(=O)=O)cc1)c1cccc(C(=O)Nc2c(I)cc(C(F)(C(F)(F)F)C(F)(F)F)cc2C(F)(F)F)c1F [Compound 49] | 95 | 95 | ≥ 70 | 95 | 95 | ≥ 70 | ≥ 70 | 100 | 100 | 95 | pest or weed control at 0.0064 ppm [2]: 95%; pest or weed control at 0.032 ppm [2]: 95%; pest or weed control at 0.04 µg/cm2, 0.04 µg/cm2 [4]: 95%
CC(C)c1ccc(C(=O)N(C)c2cccc(C(=O)Nc3c(I)cc(C(F)(C(F)(F)F)C(F)(F)F)cc3C(F)(F)F)c2F)cc1 [Compound 47] |  | 95 | ≥ 70 | 95 | 95 | ≥ 70 | ≥ 70 |  | 100 |  | 
CN(C(=O)c1ccc2c(c1)CCCC2)c1cccc(C(=O)Nc2c(I)cc(C(F)(C(F)(F)F)C(F)(F)F)cc2C(F)(F)F)c1F [Compound 52] |  | 95 | ≥ 70 |  | 95 | ≥ 70 |  |  | 100 |  | 
CN(C(=O)c1cnc(C(F)(F)F)nc1)c1cccc(C(=O)Nc2c(I)cc(C(F)(C(F)(F)F)C(F)(F)F)cc2C(F)(F)F)c1F [Compound 113] | 95 | 95 | ≥ 70 |  |  | ≥ 70 | ≥ 70 | 100 | 100 | 95 | pest or weed control at 0.032 ppm [2]: 95%; pest or weed control at 32 ng ([7]; dose 0.032 μg/animal injected): 100%
CN(C(=O)c1ccc(C(N)=O)cc1)c1cccc(C(=O)Nc2c(I)cc(C(F)(C(F)(F)F)C(F)(F)F)cc2C(F)(F)F)c1F [Compound 48] | 95 | 95 | ≥ 70 |  | 95 | ≥ 70 |  | 100 | 100 | 95 | 
CCN(C(=O)c1ccc(F)cc1)c1cccc(C(=O)Nc2c(I)cc(C(F)(C(F)(F)F)C(F)(F)F)cc2C(F)(F)F)c1F [Compound 43] |  |  |  |  |  |  |  |  |  |  | inhibition in vivo at 5 mg/kg ([1]; SD 2, read-out: Geometric mean percent reduction in live flea (Ctenocephalides felis) counts compared to untreated control rats): 100%; inhibition in vivo at 5 mg/kg ([1]; SD 9, read-out: Geometric mean percent reduction in live flea (Ctenocephalides felis) counts compared to untreated control rats): 99%; inhibition in vivo at 5 mg/kg ([1]; SD 16, read-out: Geometric mean percent reduction in live flea (Ctenocephalides felis) counts compared to untreated control rats): 90%; inhibition in vivo at 5 mg/kg ([1]; SD 23, read-out: Geometric mean percent reduction in live flea (Ctenocephalides felis) counts compared to untreated control rats): 91%; inhibition in vivo at 5 mg/kg ([1]; SD 30, read-out: Geometric mean percent reduction in live flea (Ctenocephalides felis) counts compared to untreated control rats): 13%
CN(C(=O)c1ccc(F)cc1)c1cc(C(=O)Nc2c(Cl)cc(C(F)(C(F)(F)F)C(F)(F)F)cc2C(F)(F)F)ccc1F [Compound 83] | 95 | 95 | ≥ 70 | 95 | 95 | ≥ 70 | ≥ 70 | 100 | 100 | 95 | pest or weed control at 0.032 ppm [2]: 95%; pest or weed control at 0.04 µg/cm2, 0.04 µg/cm2 [4]: 95%
O=C(Nc1cccc(C(=O)Nc2c(I)cc(C(F)(C(F)(F)F)C(F)(F)F)cc2C(F)(F)F)c1F)c1ccc(C(F)(F)F)nc1C(F)(F)F [Compound 112] | 95 | 95 | ≥ 70 |  |  | ≥ 70 |  |  | 100 | 95 | 
CN(C(=O)c1ccc(S(N)(=O)=O)cc1)c1cccc(C(=O)Nc2c(I)cc(C(F)(C(F)(F)F)C(F)(F)F)cc2C(F)(F)F)c1F [Compound 45] | 95 | 95 | ≥ 70 |  |  | ≥ 70 |  | 100 | 100 | 95 | 
